Results published in article PMC9525273 (Nature Communications, 2022).

Columns and labels:
NF54^G358S-3 parasites = test: P. falciparum proliferation assay (72 h, flow cytometry, SYBR Green I/MitoTracker); assay type: cell-based; details: Plasmodium falciparum, NF54G358S-3, mean ± SEM, n = 3
Method: Two types of parasite proliferation assays were employed in this study, with both yielding highly consistent results. For the NF54-based lines and Dd2-B2-PfATP4^G358S and its parent, assays were initiated with cultures containing predominantly ring-stage parasites with a parasitaemia of 0.3% and a haematocrit of 1%. All assays using NF54 were performed in culture media containing 10% O + human serum. The duration of the assays was 72 h and the concentration of DMSO was <0.5% (v/v). Serial dilutions of the test compounds were performed using a Tecan D300e digital dispenser, with parasite cultures added manually. Parasite survival was assessed by flow cytometry on an Intellicyt iQue3 (Essen Bioscience), with 1× SYBR Green I (Invitrogen) and 200 nM MitoTracker Deep Red FM (Invitrogen) used to stain the nucleus and the mitochondria in live parasites, respectively. The gating strategy used to quantify parasite survival, performed using FlowJo version 10 (FlowJo LLC.), is illustrated in Supplementary Fig. 9. IC50 and IC90 values were calculated by linear interpolation of the dose-response data.

[1] = tested on: MMV665949-selected Culture 1 (from Dd2-Polδ; not cloned); test: P. falciparum proliferation assay (72 h, fluorescent DNA-intercalating dye); assay type: cell-based, Plasmodium falciparum; details: Plasmodium falciparum, DD2; MMV665949-selected Culture 1; mean ± SEM, n = 3; read-out: IC50 value
Method: (§1) For experiments with all other parasites, the effects of compounds of interest on parasite proliferation was measured in 96-well plates containing serial dilutions of the compounds in culture medium, with a fluorescent DNA-intercalating dye used to detect surviving parasites. The assays were initiated with erythrocytes infected with predominantly ring-stage parasites, and the starting parasitaemia and haematocrit were both 1%. […] Fluorescence was measured using a FLUOstar OPTIMA plate reader (BMG LABTECH), with OPTIMA version 2.20R2 and MARS Data Analysis Software version 3.01 R2 (BMG LABTECH).

[2] = tested on: cipargamin-selected culture A (from Dd2-PfATP4^T418N,P990R); test: as above; assay type: cell-based; details: Plasmodium falciparum, culture A at end of drug-exposure period, mean ± SEM, n = 3
Method: as §1

[3] = tested on: cipargamin-selected culture B (from Dd2-PfATP4^T418N,P990R); test: as above; assay type: cell-based; details: Plasmodium falciparum, culture B at end of drug-exposure period, mean ± SEM, n = 3
Method: as §1

[4] = clinical trials, sustained periods; cited from earlier work

C[C@H]1Cc2c([nH]c3cc(Cl)c(F)cc23)[C@@]2(N1)C(=O)Nc1ccc(Cl)cc12 [Cipargamin]
IC50 (NF54^G358S-3 parasites): 2.2 ± 0.7 µM | IC50 [1]: 0.00142 ± 0.0003 µM | IC50 [2]: 5.9 ± 0.2 µM | IC50 [3]: 6.2 ± 0.2 µM | concentration reached in human plasma [4]: supramicromolar concentrations
